The source of these data is patent publication US20240384268A1, “Oligonucleotides” (Hudson Institute of Medical Research, priority 2021, published 2024).

In the oligonucleotide strings, read from the 5' end, every base follows the letter of its sugar. An asterisk marks phosphorothioate; unmarked linkages are phosphodiester. Other units and linkages are bracketed, terminal groups are in braces. A string of capitals states the bases alone. d = 2'-deoxy (DNA); m = 2'-O-methyl

The data set addresses T1, human TLR7 (Homo sapiens, UniProt Q9NYK1).
T1 construct: HA; host or cells: 293XL-hTLR7-HA (HEK293)
T1 sequence (Q9NYK1 27-1049): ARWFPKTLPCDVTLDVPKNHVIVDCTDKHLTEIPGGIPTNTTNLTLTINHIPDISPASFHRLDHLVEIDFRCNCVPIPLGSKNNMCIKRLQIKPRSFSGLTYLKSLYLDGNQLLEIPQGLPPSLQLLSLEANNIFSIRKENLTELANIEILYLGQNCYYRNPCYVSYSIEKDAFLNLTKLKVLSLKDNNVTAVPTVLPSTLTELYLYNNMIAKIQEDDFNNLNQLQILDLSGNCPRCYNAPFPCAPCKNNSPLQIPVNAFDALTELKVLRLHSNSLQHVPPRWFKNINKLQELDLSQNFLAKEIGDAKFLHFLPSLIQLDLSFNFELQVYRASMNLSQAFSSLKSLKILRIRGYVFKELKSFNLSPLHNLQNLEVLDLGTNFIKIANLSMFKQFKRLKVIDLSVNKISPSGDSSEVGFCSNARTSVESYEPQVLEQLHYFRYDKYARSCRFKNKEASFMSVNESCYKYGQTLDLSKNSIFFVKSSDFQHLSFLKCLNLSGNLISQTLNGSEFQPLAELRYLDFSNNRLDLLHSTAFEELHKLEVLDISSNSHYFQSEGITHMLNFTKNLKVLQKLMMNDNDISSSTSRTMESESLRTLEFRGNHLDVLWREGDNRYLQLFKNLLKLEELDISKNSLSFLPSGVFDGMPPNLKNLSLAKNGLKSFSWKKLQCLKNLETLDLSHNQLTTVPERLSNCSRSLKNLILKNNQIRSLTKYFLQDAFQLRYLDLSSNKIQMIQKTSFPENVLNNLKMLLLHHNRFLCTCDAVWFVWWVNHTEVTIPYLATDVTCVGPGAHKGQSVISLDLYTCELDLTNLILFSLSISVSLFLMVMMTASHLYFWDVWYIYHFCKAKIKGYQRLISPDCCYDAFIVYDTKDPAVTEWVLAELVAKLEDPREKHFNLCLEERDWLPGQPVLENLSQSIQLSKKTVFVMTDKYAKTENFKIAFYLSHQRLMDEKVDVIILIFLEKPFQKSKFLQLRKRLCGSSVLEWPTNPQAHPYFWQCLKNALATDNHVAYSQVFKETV
Nature of the data set: HEK-TLR7 NF-κB-luciferase reporter, R848 stimulation. Format: cell-based. The note with it: for TLR7-100 nM: averaged NF-κB-Luciferase relative to R848: HEK-TLR7, 100 nM ASO, percentage of R848 without ASO (Alharbi et al., 2020); for TLR7 100 nM: MOE-modified ASO at 100 nM; for TLR7 100 nM / TLR7 500 nM: averaged NF-κB-Luciferase relative to R848 condition; for TLR7 500 nM: MOE-modified ASO at 500 nM.

Turning to “mU*mU*mA*mG*mC*T*C*C*T*T*G*C*C*T*C*mG*mU*mU*mC*mC (mU*mU*mA*mG*mC*dT*dC*dC*dT*dT*dG*dC*dC*dT*dC*mG*mU*mU*mC*mC; antisense) [[LINC-PINT] 1222]”, the “TLR7-100 nM: averaged NF-κB-Luciferase relative to R848” value stood at 31.67%.
As for “AGTCGTAGTTGCTTCCTAAC (antisense; 2'-MOE modified, pattern not given here) [MB21D1-1181 MOE]”, the “TLR7 100 nM” value is listed as 0.494 and the “TLR7 500 nM” value came out at 0.228.
Turning to “mU*mA*mA*mA*mA*T*A*A*G*G*G*G*A*A*T*mA*mG*mG*mG*mG (mU*mA*mA*mA*mA*dT*dA*dA*dG*dG*dG*dG*dA*dA*dT*mA*mG*mG*mG*mG) [[CDKN2B-AS1]80]”, the “TLR7-100 nM: averaged NF-κB-Luciferase relative to R848” value is given as 40.95%.
Still for that read-out and setting: to “mG*mC*mG*mU*mA*G*T*T*T*C*T*C*T*T*C*mC*mU*mC*mC*mC (GCGUAGTTTCTCTTCCUCCC; sugars from the 5' end m5 d10 m5, all phosphorothioate, methylation of C not given here) [[LINC-PINT]935 KL]” belongs 27.23%; to “mG*mG*mA*mU*mU*A*A*A*A*C*A*G*A*T*T*mA*mA*mU*mA*mC (GGAUUAAAACAGATTAAUAC; sugars from the 5' end m5 d10 m5, all phosphorothioate, methylation of C not given here) [[CDKN2B-AS1]1774]”, 27.16%.
Same read-out and setting: then “mU*mG*mA*mC*mA*A*A*A*C*A*A*T*A*A*T*mA*mA*mC*mA*mG (mU*mG*mA*mC*mA*dA*dA*dA*dC*dA*dA*dT*dA*dA*dT*mA*mA*mC*mA*mG) [[LINC-PINT]384]”, with 36.68%; and “mA*mA*mG*mG*mU*G*G*C*C*A*C*A*G*G*C*mA*mA*mC*mG*mU (mA*mA*mG*mG*mU*dG*dG*dC*dC*dA*dC*dA*dG*dG*dC*mA*mA*mC*mG*mU; antisense) [[CDKN2B-AS1]2198]”, with 57.85%.
Still for that read-out and setting: to “mA*mU*mG*mA*mC*A*T*T*T*C*G*T*G*G*C*mU*mC*mC*mU*mA (mA*mU*mG*mA*mC*dA*dT*dT*dT*dC*dG*dT*dG*dG*dC*mU*mC*mC*mU*mA) [[LINC-PINT]524.1]” belongs 32.53%; to “mC*mC*mC*mU*mA*A*T*G*C*T*T*T*C*C*T*mC*mU*mC*mC*mA (mC*mC*mC*mU*mA*dA*dT*dG*dC*dT*dT*dT*dC*dC*dT*mC*mU*mC*mC*mA; antisense) [[LINC-PINT1877 KL]”, 58.39%; to “mG*mU*mC*mC*mG*T*A*C*C*T*C*C*A*C*C*mC″mA*mC*mC*mG [[LINC-PINT]727.1]”, 22.79%.
Turning to “mA*mG*mG*mA*mU*T*A*A*A*A*C*A*G*A*T*mU*mA*mA*mU*mA (mA*mG*mG*mA*mU*dT*dA*dA*dA*dA*dC*dA*dG*dA*dT*mU*mA*mA*mU*mA) [[CDKN2B-AS1] 1775]”, the “TLR7-100 nM: averaged NF-κB-Luciferase relative to R848” value amounted to 36.28%.
As to “TGGGCTGGAATCCGAGTTAT (antisense; 2'-MOE modified, pattern not given here) [EGFR-4705 MOE]”, the “TLR7 100 nM” value was found to be 0.270 and the “TLR7 500 nM” value was determined as 0.095.
On to “mU*mU*mC*mU*mC*T*C*T*G*G*T*C*C*C*A*mU*mC*mC*mC*mU (mU*mU*mC*mU*mC*dT*dC*dT*dG*dG*dT*dC*dC*dC*dA*mU*mC*mC*mC*mU; antisense) [[LINC-PINT]111]”, for which the “TLR7-100 nM: averaged NF-κB-Luciferase relative to R848” value is on record as 26.22%.
Same read-out and setting: to “mG*mC*mA*mA*mG*G*C*A*G*A*G*A*A*A*C*mU*mC*mC*mA*mG (GCAAGGCAGAGAAACUCCAG; sugars from the 5' end m5 d10 m5, all phosphorothioate, methylation of C not given here) [[LINC-PINT]1315 KL]” belongs 19,99%; to “mA*mG*mA*mU*mU*A*T*C*T*T*C*T*T*T*T*mA*mA*mU*mU*mU (AGAUUATCTTCTTTTAAUUU; sugars from the 5' end m5 d10 m5, all phosphorothioate, methylation of C not given here) [[CDKN2B-AS1]2130]”, 37.10%; to “mU*mC*mC*mC*mA*T*C*C*C*T*T*C*T*G*C*mU*mG*mA*mC*mA (UCCCATCCCTTCTGCUGACA; sugars from the 5' end m5 d10 m5, all phosphorothioate, methylation of C not given here) [[LINC-PINT]101]”, 43.08%.
In the case of “mA*mU*mA*mU*mC*T*G*C*T*G*C*C*C*A*C*mC*mU*mU*mC*mU (AUAUCTGCTGCCCACCUUCU; antisense; sugars from the 5' end m5 d10 m5, all phosphorothioate, methylation of C not given here) [[CDKN2B-AS1]831]”, the “TLR7-100 nM: averaged NF-κB-Luciferase relative to R848” value is listed as 47.52%.
Turning to “mA*mA*mA*mA*mG*A*T*T*A*T*C*T*T*C*T*mU*mU*mU*mA*mA (AAAAGATTATCTTCTUUUAA; sugars from the 5' end m5 d10 m5, all phosphorothioate, methylation of C not given here) [[CDKN2B-AS1]2133]”, the “TLR7-100 nM: averaged NF-κB-Luciferase relative to R848” value is reported as 47.41%.
Same read-out and setting: then “mU*mG*mU*mG*mA*A*A*A*G*A*T*T*A*T*C*mU*mU*mC*mU*mU (UGUGAAAAGATTATCUUCUU; sugars from the 5' end m5 d10 m5, all phosphorothioate, methylation of C not given here) [[CDKN2B-AS1]2137]”, with 34.51%.
As for “mU*mU*mU*mG*mA*A*A*T*T*C*A*G*A*A*G*mA*mU*mU*mU*mG (mU*mU*mU*mG*mA*dA*dA*dT*dT*dC*dA*dG*dA*dA*dG*mA*mU*mU*mU*mG) [[LINC PINT|2690]”, the “TLR7-100 nM: averaged NF-κB-Luciferase relative to R848” value is listed as 35.07%.
For the substance “mG*mG*mU*mG*mG*C*C*A*C*A*G*G*C*A*A*mC*mG*mU*mC*mA (GGUGGCCACAGGCAACGUCA; antisense; sugars from the 5' end m5 d10 m5, all phosphorothioate, methylation of C not given here) [[CDKN2B-AS1]2196]”, the “TLR7-100 nM: averaged NF-κB-Luciferase relative to R848” value was 39.07%.
For “mC*mC*mA*mU*mC*C*C*T*T*C*T*G*C*T*G*mC*mC*mA*mA*mG (mC*mC*mA*mU*mC*dC*dC*dT*dT*dC*dT*dG*dC*dT*dG*mC*mC*mA*mA*mG; antisense) [ILING-PINT199]”, the “TLR7-100 nM: averaged NF-κB-Luciferase relative to R848” value worked out at 52.57%.
For the substance “mA*mA*mA*mA*mU*A*A*G*G*G*G*A*A*T*A*mG*mG*mG*mG*mA (mA*mA*mA*mA*mU*dA*dA*dG*dG*dG*dG*dA*dA*dT*dA*mG*mG*mG*mG*mA; antisense) [[CDKN2B-AS1]79]”, the “TLR7-100 nM: averaged NF-κB-Luciferase relative to R848” value is 68.45%.
The same measure, in the same setting: to “mC*mU*mC*mU*mC*T*G*G*T*C*C*C*A*T*C*mC*mC*mU*mU*mC (mC*mU*mC*mU*mC*dT*dG*dG*dT*dC*dC*dC*dA*dT*dC*mC*mC*mU*mU*mC; antisense) [[LINC-PINT]109]” belongs 84.97%.
Take “CGGCATCCACCACGTCGTCC (antisense; 2'-MOE modified, pattern not given here) [EGFR-3267 MOE]”: the “TLR7 100 nM” value is on record as 0.485 and the “TLR7 500 nM” value was found to be 0.202.
In the case of “mA*mG*mA*mA*mA*G*A*A*G*C*A*A*A*G*A*mU*mU*mC*mA*mA (AGAAAGAAGCAAAGAUUCAA; sugars from the 5' end m5 d10 m5, all phosphorothioate, methylation of C not given here) [[CDKN2B-AS1]1519]”, the “TLR7-100 nM: averaged NF-κB-Luciferase relative to R848” value was 42.99%.
Take “mC*mC*mA*mU*mG*T*C*C*C*A*G*G*C*C*T*mC*mC*mA*mG*mU (CCAUGTCCCAGGCCTCCAGU; sugars from the 5' end m5 d10 m5, all phosphorothioate, methylation of C not given here) [[CDKN2B-AS1]2227]”: the “TLR7-100 nM: averaged NF-κB-Luciferase relative to R848” value is 41.39%.
For the substance “CGGAGGTCTTGGCTTCGTGG (antisense; 2'-MOE modified, pattern not given here) [MB21D1-525 MOE]”, the “TLR7 100 nM” value worked out at 0.505 and the “TLR7 500 nM” value turned out to be 0.138.
With “TGGGTTACGGCTCAGTATGG (antisense; 2'-MOE modified, pattern not given here) [CAMSAP1-4295 MOE]”, the “TLR7 100 nM” value was determined as 0.427 and the “TLR7 500 nM” value was 0.167.
With “mA*mA*mG*mA*mU*T*A*T*C*T*T*C*T*T*T*mU*mA*mA*mU*mU (mA*mA*mG*mA*mU*dT*dA*dT*dC*dT*dT*dC*dT*dT*dT*mU*mA*mA*mU*mU) [[CDKN2B-AS1]2131]”, the “TLR7-100 nM: averaged NF-κB-Luciferase relative to R848” value came to 42.09%.
